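GI50 marks 50% less growth. Definition used: TGI = concentration required for complete inhibition of growth.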
What was measured:
Assay in all cases: NCI-60 cell line screen, 384-well format
[1] = tested on: HCT-15 colon
[2] = tested on: NCI/ADR-RES ovarian
[3] = tested on: CCRF-CEM leukemia
[4] = tested on: NCI-H23 lung
[5] = tested on: HT29 colon
[6] = tested on: MCF7 breast
[7] = tested on: HOP-92 NSCLC
[8] = tested on: SF-539 CNS
[9] = tested on: MDA-MB-468 breast
[10] = tested on: SNB-19 CNS
[11] = tested on: KM12 colon
[12] = tested on: MOLT-4 leukemia
[13] = tested on: SF-268 CNS
[14] = tested on: NCI-H460 NSCLC
[15] = tested on: MDA-MB-231 breast
[16] = tested on: RXF 393 renal
[17] = tested on: EKVX NSCLC
[18] = tested on: RPMI-8226 leukemia
[19] = tested on: CAKI-1 renal
[20] = tested on: SK-OV-3 ovarian
[21] = tested on: T-47D breast
[22] = tested on: ACHN renal
[23] = tested on: HL-60(TB) leukemia
[24] = tested on: SF-295 CNS
[25] = tested on: HS 578T breast
[26] = tested on: SNB-75 CNS
[27] = tested on: COLO 205 colon
[28] = tested on: A549 NSCLC
[29] = tested on: PC-3 prostate
[30] = tested on: HCC-2998 colon
[31] = tested on: HCT-116 colon
[32] = tested on: LOX IMVI melanoma
[33] = tested on: IGROV1 ovarian
[34] = tested on: UACC-62 melanoma
[35] = tested on: SN12C renal
[36] = tested on: OVCAR-4 ovarian
[37] = tested on: TK-10 renal
[38] = tested on: K-562 leukemia
[39] = tested on: SW-620 colon
[40] = tested on: M14 melanoma
[41] = tested on: DU-145 prostate
[42] = tested on: A498 renal
[43] = tested on: NCI-H522 lung
[44] = tested on: 786-0 renal
[45] = tested on: SK-MEL-2 melanoma
[46] = tested on: SR leukemia
[47] = tested on: MDA-MB-435 melanoma
[48] = tested on: NCI-H322M lung
[49] = tested on: BT-549 breast
[50] = tested on: OVCAR-3 ovarian
[51] = tested on: MALME-3M melanoma
[52] = tested on: SK-MEL-5 melanoma
[53] = tested on: U251 glioblastoma
[54] = tested on: OVCAR-5 ovarian
[55] = tested on: SK-MEL-28 melanoma
[56] = tested on: NCI-H226 lung
[57] = tested on: HOP-62 NSCLC
[58] = tested on: UACC-257 melanoma
[59] = tested on: UO-31 renal

`CN1CC[C@]2(c3cccc(O)c3)CC(=O)/C(=C/c3ccccc3)[C@H]1C2` gave a GI50 [1] of 3.21 µM, a TGI [1] of 13.1 µM and a GI50 [2] of 11.1 µM. It also gave a TGI [2] of 27.8 µM, a GI50 [3] of 11.8 µM and a TGI [3] of 24.3 µM. It also gave a GI50 [4] of 12 µM, a TGI [4] of 26.4 µM and a GI50 [5] of 13.4 µM. The TGI [5] was 26.8 µM, the GI50 [6] was 11.5 µM and the TGI [6] was 23.9 µM. It also gave a GI50 [7] of 11.6 µM, a TGI [7] of 24 µM and a GI50 [8] of 6.7 µM. The TGI [8] was 19.6 µM, the GI50 [9] was 13.4 µM and the TGI [9] was 26.4 µM. It also gave a GI50 [10] of 15 µM, a TGI [10] of 29 µM and a GI50 [11] of 4.77 µM. For the same compound, the TGI [11] was 16.4 µM, the GI50 [12] was 6.77 µM and the TGI [12] was 19.8 µM. The GI50 [13] was 11.9 µM, the TGI [13] was 24.3 µM and the GI50 [14] was 4.05 µM. The TGI [14] was 15.2 µM, the GI50 [15] was 9.42 µM and the TGI [15] was 22.1 µM. For the same compound, the GI50 [16] was 3.86 µM, the TGI [16] was 14.5 µM and the GI50 [17] was 6.2 µM. It also gave a TGI [17] of 20.3 µM, a GI50 [18] of 1.86 µM and a TGI [18] of 3.77 µM. It also gave a GI50 [19] of 8.77 µM, a TGI [19] of 21.1 µM and a GI50 [20] of 5.01 µM. It also gave a TGI [20] of 16.6 µM, a GI50 [21] of 11.8 µM and a TGI [21] of 24.5 µM. The GI50 [22] was 12.8 µM, the TGI [22] was 25.7 µM and the GI50 [23] was 2.06 µM. It also gave a TGI [23] of 4.13 µM, a GI50 [24] of 16.2 µM and a TGI [24] of 30.1 µM. The GI50 [25] was 3.7 µM, the TGI [25] was 14.5 µM and the GI50 [26] was 6.43 µM. For the same compound, the TGI [26] was 18.8 µM, the GI50 [27] was 15.4 µM and the TGI [27] was 28.9 µM. The GI50 [28] was 4.95 µM, the TGI [28] was 16.5 µM and the GI50 [29] was 10 µM. For the same compound, the TGI [29] was 21.9 µM, the GI50 [30] was 1.77 µM and the TGI [30] was 14.7 µM. For the same compound, the GI50 [31] was 8.49 µM, the TGI [31] was 20.9 µM and the GI50 [32] was 12 µM. It also gave a TGI [32] of 24.5 µM, a GI50 [33] of 14.5 µM and a TGI [33] of 28 µM. The GI50 [34] was 10.5 µM, the TGI [34] was 22.5 µM and the GI50 [35] was 13.6 µM. It also gave a TGI [35] of 26.9 µM, a GI50 [36] of 14.8 µM and a TGI [36] of 28.2 µM. For the same compound, the GI50 [37] was 14.9 µM, the TGI [37] was 28.3 µM and the GI50 [38] was 4.3 µM. For the same compound, the TGI [38] was 18 µM, the GI50 [39] was 5.35 µM and the TGI [39] was 16.5 µM. For the same compound, the GI50 [40] was 12.7 µM, the TGI [40] was 25.5 µM and the GI50 [41] was 14.2 µM. The TGI [41] was 28.1 µM, the GI50 [42] was 16.5 µM and the TGI [42] was 30.3 µM. For the same compound, the GI50 [43] was 0.414 µM, the TGI [43] was 2.38 µM and the GI50 [44] was 13.6 µM. For the same compound, the TGI [44] was 26.7 µM, the GI50 [45] was 21.1 µM and the TGI [45] was 35.6 µM. It also gave a GI50 [46] of 1.16 µM, a TGI [46] of 3.15 µM and a GI50 [47] of 4.41 µM. For the same compound, the TGI [47] was 16.2 µM, the GI50 [48] was 5.86 µM and the TGI [48] was 18.6 µM. The GI50 [49] was 5.7 µM, the TGI [49] was 17.7 µM and the GI50 [50] was 4.8 µM. The TGI [50] was 15.7 µM, the GI50 [51] was 6.65 µM and the TGI [51] was 18.9 µM. It also gave a GI50 [52] of 4.91 µM, a TGI [52] of 15.7 µM and a GI50 [53] of 4.11 µM. For the same compound, the TGI [53] was 15.5 µM, the GI50 [54] was 17.6 µM and the TGI [54] was 31.8 µM. The GI50 [55] was 10.7 µM, the TGI [55] was 22.8 µM and the GI50 [56] was 18.1 µM. It also gave a TGI [56] of 32.1 µM, a GI50 [57] of 17 µM and a TGI [57] of 31.3 µM. The GI50 [58] was 3.9 µM and the TGI [58] was 13.7 µM.
With `Cc1cccc2nc3cccc(C(=O)NCCNCCNCCNC(=O)c4cccc5nc6cccc(C)c6nc45)c3nc12` the GI50 [1] was 0.0212 µM, the TGI [1] was greater than 100 µM and the GI50 [4] was 0.179 µM. It also gave a TGI [4] of 1.76 µM, a GI50 [5] of less than 0.01 µM and a TGI [5] of 0.234 µM. For the same compound, the GI50 [6] was less than 0.01 µM, the TGI [6] was 31.2 µM and the GI50 [8] was less than 0.01 µM. The TGI [8] was 0.454 µM, the GI50 [9] was less than 0.01 µM and the TGI [9] was 1.21 µM. The GI50 [10] was 0.245 µM, the TGI [10] was greater than 100 µM and the GI50 [11] was less than 0.01 µM. It also gave a TGI [11] of 0.109 µM, a GI50 [12] of less than 0.01 µM and a GI50 [13] of 0.0757 µM. The TGI [13] was 0.318 µM, the GI50 [14] was less than 0.01 µM and the TGI [14] was 0.229 µM. It also gave a GI50 [15] of 0.0115 µM, a TGI [15] of 0.628 µM and a GI50 [16] of less than 0.01 µM. The TGI [16] was 0.231 µM, the GI50 [17] was 1.23 µM and the TGI [17] was 5.68 µM. For the same compound, the GI50 [19] was less than 0.01 µM, the TGI [19] was 3.14 µM and the GI50 [20] was 0.0289 µM. The TGI [20] was 3.75 µM, the GI50 [21] was 0.564 µM and the TGI [21] was 5.31 µM. The GI50 [22] was less than 0.01 µM, the TGI [22] was 1.96 µM and the GI50 [23] was less than 0.01 µM. It also gave a TGI [23] of 0.154 µM, a GI50 [24] of less than 0.01 µM and a TGI [24] of 3.08 µM. It also gave a GI50 [25] of 0.0796 µM, a TGI [25] of 0.265 µM and a GI50 [26] of 0.127 µM. The TGI [26] was 0.316 µM, the GI50 [27] was less than 0.01 µM and the TGI [27] was 1.82 µM. For the same compound, the GI50 [28] was less than 0.01 µM, the TGI [28] was 1.51 µM and the GI50 [29] was 0.0171 µM. For the same compound, the TGI [29] was 2.28 µM, the GI50 [33] was less than 0.01 µM and the TGI [33] was 47.7 µM. It also gave a GI50 [34] of less than 0.01 µM, a TGI [34] of 0.152 µM and a GI50 [35] of 0.109 µM. The TGI [35] was 0.3 µM, the GI50 [36] was 0.188 µM and the TGI [36] was 2.02 µM. For the same compound, the GI50 [37] was less than 0.01 µM, the TGI [37] was 6.44 µM and the GI50 [38] was less than 0.01 µM. For the same compound, the TGI [38] was 1.27 µM, the GI50 [39] was less than 0.01 µM and the TGI [39] was 1.71 µM. It also gave a GI50 [40] of less than 0.01 µM, a TGI [40] of 0.751 µM and a GI50 [41] of less than 0.01 µM. For the same compound, the TGI [41] was 0.208 µM, the GI50 [42] was less than 0.01 µM and the TGI [42] was 2.23 µM. For the same compound, the GI50 [43] was 0.101 µM, the TGI [43] was 0.221 µM and the GI50 [44] was less than 0.01 µM. For the same compound, the TGI [44] was 6.78 µM, the GI50 [45] was 0.0713 µM and the TGI [45] was 0.209 µM. It also gave a GI50 [46] of less than 0.01 µM, a GI50 [47] of 0.133 µM and a TGI [47] of 1.9 µM. It also gave a GI50 [48] of 0.139 µM, a TGI [48] of 1.14 µM and a GI50 [49] of 1.32 µM. The TGI [49] was 2.78 µM, the GI50 [59] was 0.047 µM and the TGI [59] was 19.4 µM. For the same compound, the GI50 [50] was less than 0.01 µM, the TGI [50] was 2.62 µM and the GI50 [51] was 0.107 µM. The TGI [51] was 1.9 µM, the GI50 [52] was less than 0.01 µM and the TGI [52] was 1.21 µM. The GI50 [53] was less than 0.01 µM, the TGI [53] was 1.78 µM and the GI50 [54] was 0.0623 µM. The TGI [54] was greater than 100 µM, the GI50 [55] was 0.51 µM and the TGI [55] was 2.14 µM. For the same compound, the GI50 [56] was 0.124 µM, the TGI [56] was 1.19 µM and the GI50 [57] was less than 0.01 µM. It also gave a TGI [57] of 1.39 µM, a GI50 [58] of 1.45 µM and a TGI [58] of 3.58 µM.

Reference: PubChem BioAssay (NCI)
